Patent US20060069123A1, “Substituted dipiperidine CCR2 antagonists” (priority 2004, published 2006)
Like-named read-outs stand apart in the source and are kept apart here.

Key:
THP-1 cells [1] = settings: Homo sapiens
THP-1 cells [2] = assay: MCP-1 Induced Chemotaxis in THP-1 Cells; type: cell-based; settings: Homo sapiens, THP-1 cells, MCP-1 0.01 μg/mL, 3 hours, read-out: Inhibition of MCP-1 Induced Chemotaxis IC50
CCR2 = biological target: T1, CCR2 (Homo sapiens, UniProt P41597)
T1 sequence (P41597 1-360 isoform P41597-2): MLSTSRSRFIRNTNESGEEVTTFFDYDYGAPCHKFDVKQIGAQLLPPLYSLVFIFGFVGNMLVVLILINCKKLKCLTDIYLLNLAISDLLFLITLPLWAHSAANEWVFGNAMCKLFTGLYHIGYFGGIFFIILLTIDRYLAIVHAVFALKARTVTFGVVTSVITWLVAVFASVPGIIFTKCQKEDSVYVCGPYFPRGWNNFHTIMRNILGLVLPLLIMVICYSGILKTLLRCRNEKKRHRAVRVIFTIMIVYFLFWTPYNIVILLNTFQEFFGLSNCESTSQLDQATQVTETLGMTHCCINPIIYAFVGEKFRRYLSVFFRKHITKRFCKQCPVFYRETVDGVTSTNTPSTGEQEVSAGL

[3] = THP-1, read-out: Inhibition of MCP-1 Induced Calcium Ion Influx IC50

| SMILES | IC50 (THP-1 cells [1]; [3]) [µM] | IC50 (THP-1 cells [2]) [µM] | IC50 (CCR2) [µM] | IC50 (THP-1 cells [1]; THP-1, read-out: Inhibition of MCP-1 Induced Calcium Ion Influx IC50, THP-1 cells, 0.2 μM MCP-1, FLIPR) [µM] | IC50 (THP-1 cells [2]; THP-1, 3 h) [µM] | IC50 (CCR2; Inhibition of MCP-1 Binding IC50, 125I labeled MCP-1 binding to CCR2, THP-1 cells) [µM] | inhibition at 25 µM (THP-1 cells [1]; THP-1, read-out: Inhibition of MCP-1 Induced Calcium Ion Influx, percent inhibition) [%] |
| --- | --- | --- | --- | --- | --- | --- | --- |
| COc1ccc2[nH]cc(C3CCN(C(CO)C4CCN(C(=O)/C=C/c5cc(F)c(F)c(F)c5)CC4)CC3)c2c1 (stereo not drawn) [Cpd 166, (2E)-1-(4-{2-hydroxy-1-[4-(5-methoxy-1H-indol-3-yl)-piperidin-1-yl]-ethyl}-piperidin-1-yl)-3-(3,4,5-trifluoro-phenyl)-propenone] | 0.008 | 0.03 | 0.006 |  |  |  |  |
| O=C(/C=C/c1cc(F)c(F)c(F)c1)N1CCC(C(CO)N2CCC(c3c[nH]c4ccccc34)CC2)CC1 (stereo not drawn) [Cpd 112, (2E)-1-(4-{2-hydroxy-1-[4-(1H-indol-3-yl)-piperidin-1-yl]-ethyl}-piperidin-1-yl)-3-(3,4,5-trifluoro-phenyl)-propenone] | 0.0006 | 0.004 | 0.004 |  |  |  |  |
| O=C(/C=C/c1cc(F)cc(F)c1)N1CCC(C(CO)N2CCC(c3ccc(F)cc3)CC2)CC1 (stereo not drawn) [Cpd 192, (2E)-3-(3,5-difluoro-phenyl)-1-(4-{1-[4-(4-fluoro-phenyl)-piperidin-1-yl]-2-hydroxy-ethyl}-piperidin-1-yl)-propenone] | 0.17 | 0.35 | 0.22 |  |  |  |  |
| Nc1ccc2[nH]cc(C3CCN(C(C(=O)O)C4CCN(C(=O)/C=C/c5cc(F)c(F)c(F)c5)CC4)CC3)c2n1 (stereo not drawn) [Cpd 178, [4-(5-amino-1H-pyrrolo[3,2-b]pyridin-3-yl)-piperidin-1-yl]-{1-[(2E)-3-(3,4,5-trifluoro-phenyl)-acryloyl]-piperidin-4-yl}-acetic acid] | 2.35 | 0.18 | 0.09 |  |  |  |  |
| O=C(/C=C/c1ccc(Cl)c(Cl)c1)N1CCC(C(CO)N2CCC(c3c[nH]c4ccc(F)cc34)CC2)CC1 (stereo not drawn) [Cpd 168, (2E)-3-(3,4-dichloro-phenyl)-1-(4-{1-[4-(5-fluoro-1H-indol-3-yl)-piperidin-1-yl]-2-hydroxy-ethyl}-piperidin-1-yl)-propenone] | 0.01 | 0.04 | 0.02 |  |  |  |  |
| O=C(/C=C/c1cc(F)cc(F)c1)N1CCC(C(CO)N2CCC(c3c[nH]c4ccccc34)CC2)CC1 (stereo not drawn) [Cpd 116, (2E)-3-(3,5-difluoro-phenyl)-1-(4-{2-hydroxy-1-[4-(1H-indol-3-yl)-piperidin-1-yl]-ethyl}-piperidin-1-yl)-propenone] | 0.002 | 0.0004 | 0.0006 |  |  |  |  |
| O=C(/C=C/c1cc(F)cc(F)c1)N1CCC(C(CO)N2CCC(c3c[nH]c4ccc(O)cc34)CC2)CC1 (stereo not drawn) [Cpd 259, (2E)-3-(3,5-difluoro-phenyl)-1-(4-{2-hydroxy-1-[4-(5-hydroxy-1H-indol-3-yl)-piperidin-1-yl]-ethyl}-piperidin-1-yl)-propenone] |  | 0.005 | 0.002 |  |  |  | 88 |
| CC(=O)OCC(C1CCN(C(=O)/C=C/c2cc(F)cc(F)c2)CC1)N1CCC(c2c[nH]c3ccccc23)CC1 (stereo not drawn) [Cpd 235, acetic acid 2-{1-[(2E)-3-(3,5-difluoro-phenyl)-acryloyl]-piperidin-4-yl}-2-[4-(1H-indol-3-yl)-piperidin-1-yl]-ethyl ester] | 0.02 | 0.008 | 0.03 |  |  |  |  |
| COc1ccc2[nH]cc(C3CCN(C(CO)C4CCN(C(=O)/C=C/c5cc(F)cc(F)c5)CC4)CC3)c2c1 (stereo not drawn) [Cpd 164, (2E)-3-(3,5-difluoro-phenyl)-1-(4-{2-hydroxy-1-[4-(5-methoxy-1H-indol-3-yl)-piperidin-1-yl]-ethyl}-piperidin-1-yl)-propenone] | 0.009 | 0.04 | 0.01 |  |  |  |  |
| O=C(/C=C/c1ccc(F)c(Br)c1)N1CCC(C(CO)N2CCC(c3ccncc3)CC2)CC1 (stereo not drawn) [Cpd 186, (2E)-3-(3-bromo-4-fluoro-phenyl)-1-{4-[2-hydroxy-1-(3,4,5,6-tetrahydro-2H-[4,4′]bipyridinyl-1-yl)-ethyl]-piperidin-1-yl}-propenone] | 6.1 | 0.96 | 0.36 |  |  |  |  |
| COc1cccc2c(C3CCN(C(CO)C4CCN(C(=O)/C=C/c5cc(F)c(F)c(F)c5)CC4)CC3)c[nH]c12 (stereo not drawn) [Cpd 133, (2E)-1-(4-{2-hydroxy-1-[4-(7-methoxy-1H-indol-3-yl)-piperidin-1-yl]-ethyl}-piperidin-1-yl)-3-(3,4,5-trifluoro-phenyl)-propenone] | 0.0008 | 0.04 | 0.01 |  |  |  |  |
| CS(=O)(=O)N(CC(C1CCN(C(=O)/C=C/c2cc(F)cc(F)c2)CC1)N1CCC(c2c[nH]c3ccccc23)CC1)S(C)(=O)=O (stereo not drawn) [Cpd 134, N-{2-{1-[(2E)-3-(3,5-difluoro-phenyl)-acryloyl]-piperidin-4-yl}-2-[4-(1H-indol-3-yl)-piperidin-1-yl]-ethyl}-N-methanesulfonyl-methanesulfonamide] | 0.01 | 0.09 | 0.3 |  |  |  |  |
| O=C(/C=C/c1ccc([N+](=O)[O-])cc1)OCC(C1CCN(C(=O)/C=C/c2ccc([N+](=O)[O-])cc2)CC1)N1CCC(c2c[nH]c3ccccc23)CC1 (stereo not drawn) [Cpd 251, (2E)-3-(4-nitro-phenyl)-acrylic acid 2-[4-(1H-indol-3-yl)-piperidin-1-yl]-2-{1-[(2E)-3-(4-nitro-phenyl)-acryloyl]-piperidin-4-yl}-ethyl ester] | 0.56 | 0.17 | 0.39 |  |  |  |  |

Now from value to molecule, other results behind:

| IC50 (THP-1 cells [1]; [3]) [µM] | IC50 (THP-1 cells [2]) [µM] | IC50 (CCR2) [µM] | IC50 (THP-1 cells [1]; THP-1, read-out: Inhibition of MCP-1 Induced Calcium Ion Influx IC50, THP-1 cells, 0.2 μM MCP-1, FLIPR) [µM] | IC50 (THP-1 cells [2]; THP-1, 3 h) [µM] | IC50 (CCR2; Inhibition of MCP-1 Binding IC50, 125I labeled MCP-1 binding to CCR2, THP-1 cells) [µM] | SMILES | inhibition at 25 µM (THP-1 cells [1]; THP-1, read-out: Inhibition of MCP-1 Induced Calcium Ion Influx, percent inhibition) [%] |
| --- | --- | --- | --- | --- | --- | --- | --- |
| 0.12 | 1.6 | 0.353 |  |  |  | O=C(O)C(C1CCN(C(=O)Nc2cc(F)cc(C(F)(F)F)c2)CC1)N1CCC(c2c[nH]c3ccccc23)CC1 (stereo not drawn) [Cpd 65, [1-(3-fluoro-5-trifluoromethyl-phenylcarbamoyl)-piperidin-4-yl]-[4-(1H-indol-3-yl)-piperidin-1-yl]-acetic acid] |  |
| 1.6 | 2.5 | 0.81 |  |  |  | Cc1ccc(NC(=O)N2CCC(C(C(=O)O)N3CCC(c4c[nH]c5ccccc45)CC3)CC2)cc1 (stereo not drawn) [Cpd 99, [4-(1H-indol-3-yl)-piperidin-1-yl]-(1-p-tolylcarbamoyl-piperidin-4-yl)-acetic acid] |  |
| 0.03 | 0.06 | 0.005 |  |  |  | O=C(O)C(C1CCN(C(=O)Nc2ccc(SC(F)(F)F)cc2)CC1)N1CCC(c2c[nH]c3ccccc23)CC1 (stereo not drawn) [Cpd 142, [4-(1H-indol-3-yl)-piperidin-1-yl]-[1-(4-trifluoromethylsulfanyl-phenylcarbamoyl)-piperidin-4-yl]-acetic acid] |  |
|  |  |  | 0.001 | 0.095 | 0.006 | O=C(/C=C/c1ccc(F)c(F)c1)N1CCC(C(CO)N2CCC(c3c[nH]c4ccccc34)CC2)CC1 (stereo not drawn) [Cpd 113, (2E)-3-(3,4-difluoro-phenyl)-1-(4-{2-hydroxy-1-[4-(1H-indol-3-yl)-piperidin-1-yl]-ethyl}-piperidin-1-yl)-propenone] |  |
| 0.89 | 0.27 | 0.305 |  |  |  | O=C(O)C(C1CCN(C(=O)Nc2cccc(F)c2)CC1)N1CCC(c2c[nH]c3ccccc23)CC1 (stereo not drawn) [Cpd 91, [1-(3-fluoro-phenylcarbamoyl)-piperidin-4-yl]-[4-(1H-indol-3-yl)-piperidin-1-yl]-acetic acid] |  |
| 2 | 0.62 | 0.21 |  |  |  | CC(=O)NCC(C1CCN(C(=O)Nc2ccc(Cl)c(Cl)c2)CC1)N1CCC(c2c[nH]c3ccccc23)CC1 (stereo not drawn) [Cpd 217] |  |
| 0.13 | 0.14 | 0.02 |  |  |  | Cc1cc(NC(=O)N2CCC(C(C(=O)O)N3CCC(c4c[nH]c5ccccc45)CC3)CC2)ccc1Br (stereo not drawn) [Cpd 101, [1-(4-bromo-3-methyl-phenylcarbamoyl)-piperidin-4-yl]-[4-(1H-indol-3-yl)-piperidin-1-yl]-acetic acid] |  |
| 0.32 | 0.46 | 0.44 |  |  |  | O=C(c1cc2cc(Cl)ccc2o1)N1CCC(C(CO)N2CCC(c3c[nH]c4ccccc34)CC2)CC1 (stereo not drawn) [Cpd 157, (5-chloro-benzofuran-2-yl)-(4-{2-hydroxy-1-[4-(1H-indol-3-yl)-piperidin-1-yl]-ethyl}-piperidin-1-yl)-methanone] |  |
| 0.004 | 0.005 | 0.009 |  |  |  | O=C(Nc1ccc(Cl)c(Cl)c1)N1CCC(C(CO)N2CCC(c3c[nH]c4ccccc34)CC2)CC1 (stereo not drawn) [Cpd 123, 4-{2-hydroxy-1-[4-(1H-indol-3-yl)-piperidin-1-yl]-ethyl}-piperidine-1-carboxylic acid (3,4-dichloro-phenyl)-amide] |  |
| 0.04 | 0.27 | 0.23 |  |  |  | CC(=O)OCC(C1CCN(C(=O)Nc2ccc(Cl)c(Cl)c2)CC1)N1CCC(c2c[nH]c3ccccc23)CC1 (stereo not drawn) [Cpd 242, acetic acid 2-[1-(3,4-dichloro-phenylcarbamoyl)-piperidin-4-yl]-2-[4-(1H-indol-3-yl)-piperidin-1-yl]-ethyl ester] |  |
| 1.85 | 2.2 | 0.89 |  |  |  | Cc1cccc(NC(=O)N2CCC(C(C(=O)O)N3CCC(c4c[nH]c5ccccc45)CC3)CC2)c1 (stereo not drawn) [Cpd 98, [4-(1H-indol-3-yl)-piperidin-1-yl]-(1-m-tolylcarbamoyl-piperidin-4-yl)-acetic acid] |  |
